Measurements published in PubChem BioAssay AID1745844 (Carcinogenic Potency Database (CPDB), 2022).
Calls of active or inactive are those of the source. How the calls were made is not given here.

Tested on: rodent lifetime carcinogenesis bioassay, tumor incidence TD50
Test: carcinogenic potency in animals, long-term in vivo studies, CPDB compilation (AID 1745844)
Details: in drinking water

In the case of `CCN(N=O)C(N)=O`, the TD50 (rat, strain F344/DuCrj, females, site: all sites, lesion: mononuclear-cell leukemia, dosed 103 weeks, study length 111 weeks) is reported as 0.151 mg/kg/day, the TD50 (rat, strain F344/DuCrj, females, site: any site (literature study), lesion: several types, types named in the paper, dosed 103 weeks, study length 111 weeks) is reported as 0.0687 mg/kg/day and the TD50 (rat, strain F344/DuCrj, females, site: brain, lesion: several types, types named in the paper, dosed 103 weeks, study length 111 weeks) is reported as 0.904 mg/kg/day. For the same compound, the TD50 (rat, strain F344/DuCrj, females, site: digestive tract, lesion: several types, types named in the paper, dosed 103 weeks, study length 111 weeks) was 2.56 mg/kg/day, the TD50 (rat, strain F344/DuCrj, females, site: duodenum, lesion: several types, types named in the paper, dosed 103 weeks, study length 111 weeks) was 7.68 mg/kg/day and the TD50 (rat, strain F344/DuCrj, females, site: mammary gland, lesion: adenocarcinoma, dosed 103 weeks, study length 111 weeks) was 2.54 mg/kg/day. For the same compound, the TD50 (rat, strain F344/DuCrj, females, site: thyroid follicle, lesion: papillary adenoma, dosed 103 weeks, study length 111 weeks) was 8.7 mg/kg/day, the TD50 (rat, strain F344/DuCrj, females, site: uterus, endometrium, lesion: sarcoma, dosed 103 weeks, study length 111 weeks) was 2.56 mg/kg/day and the TD50 (rat, strain F344/DuCrj, females, site: uterus, lesion: adenoma, dosed 103 weeks, study length 111 weeks) was 4.08 mg/kg/day. It also gave a TD50 (rat, strain F344/DuCrj, females, site: uterus, lesion: endometrial stromal polyp, dosed 103 weeks, study length 111 weeks) of 0.883 mg/kg/day, a TD50 (rat, strain F344/DuCrj, males, site: any site (literature study), lesion: several types, types named in the paper, dosed 99 weeks, study length 111 weeks) of 0.025 mg/kg/day and a TD50 (rat, strain F344/DuCrj, males, site: brain, lesion: several types, types named in the paper, dosed 99 weeks, study length 111 weeks) of 0.997 mg/kg/day. The TD50 (rat, strain F344/DuCrj, males, site: digestive tract, lesion: several types, types named in the paper, dosed 99 weeks, study length 111 weeks) was 1.15 mg/kg/day, the TD50 (rat, strain F344/DuCrj, males, site: duodenum, lesion: several types, types named in the paper, dosed 99 weeks, study length 111 weeks) was 31.2 mg/kg/day and the TD50 (rat, strain F344/DuCrj, males, site: liver, lesion: neoplastic nodule, dosed 99 weeks, study length 111 weeks) was 16.4 mg/kg/day. It also gave a TD50 (rat, strain F344/DuCrj, males, site: lung, lesion: adenocarcinoma, dosed 99 weeks, study length 111 weeks) of 2 mg/kg/day, a TD50 (rat, strain F344/DuCrj, males, site: lung, lesion: adenoma, dosed 99 weeks, study length 111 weeks) of 0.518 mg/kg/day and a TD50 (rat, strain F344/DuCrj, males, site: mammary gland, lesion: fibroma, dosed 99 weeks, study length 111 weeks) of 0.889 mg/kg/day. The TD50 (rat, strain F344/DuCrj, males, site: peripheral nervous system, lesion: several types, types named in the paper, dosed 99 weeks, study length 111 weeks) was 10.2 mg/kg/day, the TD50 (rat, strain F344/DuCrj, males, site: peritoneum, lesion: mesothelioma, dosed 99 weeks, study length 111 weeks) was 0.109 mg/kg/day and the TD50 (rat, strain F344/DuCrj, males, site: subcutaneous tissue, lesion: fibroma, dosed 99 weeks, study length 111 weeks) was 2.42 mg/kg/day. It also gave a TD50 (rat, strain F344/DuCrj, males, site: thyroid follicle, lesion: papillary adenocarcinoma, dosed 99 weeks, study length 111 weeks) of 8.53 mg/kg/day and a TD50 (rat, strain F344/DuCrj, males, site: thyroid follicle, lesion: papillary adenoma, dosed 99 weeks, study length 111 weeks) of 3.9 mg/kg/day.

For `CC1(C)[C@@H](O[C@H]2O[C@H](C(=O)O)[C@@H](O)[C@H](O)[C@H]2O[C@@H]2O[C@H](C(=O)O)[C@@H](O)[C@H](O)[C@H]2O)CC[C@]2(C)[C@H]3C(=O)C=C4[C@@H]5C[C@@](C)(C(=O)O)CC[C@]5(C)CC[C@@]4(C)[C@]3(C)CC[C@@H]12`, the carcinogen call (mouse, strain B6C3F1, females, site: any site (literature study), lesion: several types, types named in the paper, dosed 96 weeks, study length 110 weeks) was “negative (inactive)”, the carcinogen call (mouse, strain B6C3F1, females, site: liver, lesion: hemangioma, dosed 96 weeks, study length 110 weeks) was “negative (inactive)” and the TD50 (mouse, strain B6C3F1, females, site: liver, lesion: hepatocellular adenoma, dosed 96 weeks, study length 110 weeks) was 28900 mg/kg/day (inactive). For the same compound, the TD50 (mouse, strain B6C3F1, females, site: liver, lesion: hepatocellular carcinoma, dosed 96 weeks, study length 110 weeks) was 29000 mg/kg/day (inactive), the carcinogen call (mouse, strain B6C3F1, females, site: lung, lesion: adenocarcinoma, dosed 96 weeks, study length 110 weeks) was “negative (inactive)” and the TD50 (mouse, strain B6C3F1, females, site: lung, lesion: adenoma, dosed 96 weeks, study length 110 weeks) was 14400 mg/kg/day (inactive). The TD50 (mouse, strain B6C3F1, males, site: any site (literature study), lesion: several types, types named in the paper, dosed 96 weeks, study length 110 weeks) was 3170 mg/kg/day (inactive), the carcinogen call (mouse, strain B6C3F1, males, site: liver, lesion: hemangioma, dosed 96 weeks, study length 110 weeks) was “negative (inactive)” and the carcinogen call (mouse, strain B6C3F1, males, site: liver, lesion: hepatocellular adenoma, dosed 96 weeks, study length 110 weeks) was “negative (inactive)”. The carcinogen call (mouse, strain B6C3F1, males, site: liver, lesion: hepatocellular carcinoma, dosed 96 weeks, study length 110 weeks) was “negative (inactive)”, the carcinogen call (mouse, strain B6C3F1, males, site: lung, lesion: adenocarcinoma, dosed 96 weeks, study length 110 weeks) was “negative (inactive)” and the carcinogen call (mouse, strain B6C3F1, males, site: lung, lesion: adenoma, dosed 96 weeks, study length 110 weeks) was “negative (inactive)”.
